The target in assay [1] is human GABAA α5β2γ1 receptor (Homo sapiens (Human), UniProt P31644+Q8N1C3). Description: Radioligand binding assay for γ1-containing GABAA subtypes, [3H]RO7239181 competition (α5β2γ1).
The target in assay [2] is human GABAA α2β2γ1 receptor (Homo sapiens (Human), UniProt P47869+Q8N1C3). Description: Radioligand binding assay for γ1-containing GABAA subtypes, [3H]RO7239181 competition (α2β2γ1).
Assay [3] has as its target human GABAA α1β3γ2 receptor (Homo sapiens (Human), UniProt P14867+P18507). The assay is described as follows: Radioligand binding assay for γ2-containing GABAA subtypes, [3H]Flumazenil competition (α1β3γ2). The settings on record: for γ2/γ1 Selectivity Ratio: Ki α1β3γ2 (nM)/Ki α2β2γ1 (nM); for LogSel: Log[Ki α1β3γ2 (nM)/Ki α2β2γ1 (nM)].
Assay [4] deals with α2β2γ1 GABAA receptor subtype (Homo sapiens (Human), UniProt P47869+Q8N1C3). The assay is described as follows: Two-electrode voltage clamp electrophysiology in Xenopus oocytes expressing GABAA receptors (modulation of GABA EC20 current). The class given is cell-based. The settings on record: for Efficacy (GABA)%: % modulation of GABA EC20 = 100*(Fold increase-1), α2β2γ1 oocytes, compound at approx. 30-fold Ki; for Fold increase h-GABA-A α2β2γ1 oocyte @ 30-fold Ki: Xenopus oocytes expressing α2β2γ1, compound at approx. 30-fold its Ki α2β2γ1, GABA EC20 current. In a few lines: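 Two-electrode voltage clamp at −80 mV, room temperature, 3-5 days after mRNA injection into oocytes. GABA applied at EC20 for 1.5 min, twice, with compound during second application; at least 3 oocytes per concentration. Efficacy = extremum of point-by-point current ratio, expressed as 100×(fold increase−1).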
(In general: Two-electrode voltage clamp is typically applied to oocytes expressing channels or transporters.)

Where [5] appears, read: Ki h-GABAA α2β2γ1, [3H]RO7239181 competition binding, human GABAA α2β2γ1.
The mark [6] stands for this setting: Ki h-GABAA α2β2γ1, displacement of [3H]RO7239181, membranes of HEK293F cells expressing human receptors, means of two determinations.

Molecules are shown by their SMILES.

In general, Ki refers to the dissociation constant of the complex between target and ligand, obtained from inhibition or displacement. The low end stands for a stronger hold on the target, the high end for a looser hold on the target.

`C[C@@H]1N=C(c2c(F)cccc2F)c2c(ccc(Cl)c2Cl)-n2nc(C(=O)N3CC(O)C3)nc21` [Example 25, [(4S)-7,8-dichloro-6-(2,6-difluorophenyl)-4-methyl-4H-[1,2,4]triazolo[1,5-a][1,4]benzodiazepin-2-yl]-(3-hydroxyazetidin-1-yl)methanone]: the Ki in assay [1] was found to be 1.44 nM. The compound also displayed a Ki in assay [2] (setting [5]) of 4 nM. The compound further showed a Ki in assay [2] (setting [6]) of 3.98 nM. For the same compound, in assay [3], the Ki came out at 688 nM, the “γ2/γ1 Selectivity Ratio” value is recorded as 172.8 and the LogSel amounted to 2.24. Further, in assay [4], the “Efficacy (GABA)%” value worked out at 63% and the “Fold increase h-GABA-A α2β2γ1 oocyte @ 30-fold Ki” value was 1.63.

With `COCc1nc2n(n1)-c1ccc(Cl)c(Cl)c1C(c1c(F)cccc1F)=N[C@H]2C` [Example 27, (4S)-7,8-dichloro-6-(2,6-difluorophenyl)-2-(methoxymethyl)-4-methyl-4H-[1,2,4]triazolo[1,5-a][1,4]benzodiazepine], in assay [1], the Ki is 1.08 nM. In addition, the affinity in assay [2] (setting [5]), expressed as Ki, was 11.4 nM. For the same compound, the affinity in assay [2] (setting [6]) corresponds to a Ki of 11.4 nM. In addition, in assay [3], the Ki amounted to 707 nM, the “γ2/γ1 Selectivity Ratio” value came to 61.8 and the LogSel is on record as 1.79. For the same compound, in assay [4], the “Efficacy (GABA)%” value is 69% and the “Fold increase h-GABA-A α2β2γ1 oocyte @ 30-fold Ki” value is reported as 1.69.

For `COCCNC(=O)c1nc2n(n1)-c1ccc(Cl)c(Cl)c1C(c1c(F)cccc1F)=N[C@H]2C` [Example 28, (4S)-7,8-dichloro-6-(2,6-difluorophenyl)-N-(2-methoxyethyl)-4-methyl-4H-[1,2,4]triazolo[1,5-a][1,4]benzodiazepine-2-carboxamide], the Ki in assay [1] was determined as 1.08 nM; in assay [2] (setting [5]), 3.9 nM; in assay [2] (setting [6]), 3.92 nM; in assay [3], 578 nM. The “γ2/γ1 Selectivity Ratio” value in assay [3] is reported as 147.4. The LogSel in assay [3] stood at 2.17. Moreover, the “Efficacy (GABA)%” value in assay [4] is listed as 56%. The “Fold increase h-GABA-A α2β2γ1 oocyte @ 30-fold Ki” value in assay [4] is given as 1.56.

As to `Cc1nc2n(n1)-c1ccc(C(F)(F)F)c(Cl)c1C(c1c(F)cccc1F)=N[C@H]2C` [Example 29, (4S)-7-chloro-6-(2,6-difluorophenyl)-2,4-dimethyl-8-(trifluoromethyl)-4H-[1,2,4]triazolo[1,5-a][1,4]benzodiazepine], the Ki in assay [1] amounted to 0.69 nM. The Ki in assay [2] (setting [5]) worked out at 10 nM. The compound also gave a Ki in assay [2] (setting [6]) of 10 nM. In addition, in assay [3], the affinity, expressed as Ki, was 1090 nM; the “γ2/γ1 Selectivity Ratio” value is 109.1; the LogSel is 2.04. Further, in assay [4], the “Efficacy (GABA)%” value came out at 80% and the “Fold increase h-GABA-A α2β2γ1 oocyte @ 30-fold Ki” value was found to be 1.80.

`C[C@@H]1N=C(c2c(F)cccc2F)c2c(ccc(Cl)c2Cl)-n2nc(C(=O)NCCF)nc21` [Example 30, (4S)-7,8-dichloro-6-(2,6-difluorophenyl)-N-(2-fluoroethyl)-4-methyl-4H-[1,2,4]triazolo[1,5-a][1,4]benzodiazepine-2-carboxamide]: affinity in assay [1] was put at a Ki of 1.39 nM. This compound also displayed a Ki in assay [2] (setting [5]) of 7.2 nM. In assay [2] (setting [6]), this compound gave a Ki of 7.21 nM. Further, in assay [3], the inhibition constant (Ki) is 660 nM, the “γ2/γ1 Selectivity Ratio” value came to 91.5 and the LogSel is listed as 1.96. In assay [4], the “Efficacy (GABA)%” value came out at 78% and the “Fold increase h-GABA-A α2β2γ1 oocyte @ 30-fold Ki” value stood at 1.78.

As for `C[C@@H]1N=C(c2c(F)cccc2F)c2c(ccc(Cl)c2Cl)-n2nc(C(=O)N3CC(OC(F)F)C3)nc21` [Example 31, [(4S)-7,8-dichloro-6-(2,6-difluorophenyl)-4-methyl-4H-[1,2,4]triazolo[1,5-a][1,4]benzodiazepin-2-yl]-[3-(difluoromethoxy)azetidin-1-yl]methanone], the Ki in assay [1] is 1.33 nM; in assay [2] (setting [5]), 17 nM; in assay [2] (setting [6]), 17 nM; in assay [3], 565 nM. Further, in assay [3], the “γ2/γ1 Selectivity Ratio” value came out at 33.2. The compound also returned a LogSel in assay [3] of 1.52. The “Efficacy (GABA)%” value in assay [4] is listed as 66%. Moreover, in assay [4], the “Fold increase h-GABA-A α2β2γ1 oocyte @ 30-fold Ki” value came to 1.66.

These data come from US12365687B2 (Hoffmann-La Roche Inc., priority 2021, dated 2025).
